Tests used:
[1] = system: peripheral blood CD34+ cells; test: ERYTHRO 1 PROTOCOL: simplified two-phase erythrocyte differentiation; type: cell-based, human; details: versus CTRL, FIG. 3
Experimental: b. ERYTHRO 1 PROTOCOL: Simplified Ex Vivo Erythrocyte Differentiation Protocol (in Two Phases) This protocol was applied to CD34^+ cells from peripheral and placental blood, pre-stimulated SP cells, CMP cells and MEP cells. For this culture, the cell populations of interest are isolated as indicated previously and cultured in IMDM culture medium supplemented as follows: • 15% BIT 9500 (Stem Cell Technologies). […] The various cell populations were seeded in 24-well plates at 200 000 cells/mL for CD34^+, CMPs and MEPs. All of the cells recovered after the “Amplification/pre-stimulation” step for SP cells (i.e. 5000-50 000 cells) were cultured in 24-well plates. This culture includes two phases: • Phase 1: D0 to D6, EPO-free culture • Phase 2: from D6, addition of 2 IU/ML EPO and extension of culturing up to D21 minimum and D28 maximum.
In order to test the effect of vitisin B in this context, the culturing is performed in the absence and presence of vitisin B: • CTRL condition: Absence of vitisin B throughout the entire protocol. • Test condition: Presence of vitisin B at 5, 10, 15, 20 or 30 μM for the entire duration of the protocol (phase 1+phase 2). During the culture protocol, the differentiation product is analyzed by quantifying proliferation (counting) and analyzing erythrocyte differentiation markers by means of flow cytometry, using the markers CD71 and CD235a. c. ERYTHRO 2 PROTOCOL: Three-Phase Erythrocyte Differentiation Protocol
During and at the end of the various erythrocyte differentiation protocols, cell proliferation and cell differentiation are analyzed. Cell proliferation is evaluated by counting of cells on Malassez slides, with Trypan blue exclusion of dead cells. The different populations and culture conditions are also analyzed by flow cytometry, so as to observe the appearance of erythrocyte differentiation markers and thus cell differentiation kinetics. […] After resuspension of the cell pellets in PBS, the cells are analyzed by flow cytometry (FACSCantoll, Becton Dickinson, San Jose, CA). […]

[2] = system: CD34+ cells from peripheral blood; test: AMPLIFICATION PROTOCOL: ex vivo amplification of hematopoietic progenitors; type: cell-based, human
Experimental: This is a strategy for the amplification of hematopoietic progenitors. The culture is formed as follows: CD34^+ cells from peripheral blood are isolated (as indicated in section II.A.1), and cultured for 12 days in Stem Span II medium (Stem Cell Technologies) supplemented with cytokines: SCF 100 ng/mL, FLT3-L 100 ng/mL, TPO 20 ng/mL, G-CSF 10 ng/mL. The amplification product is analyzed by quantification of proliferation (count on Malassez slides) and phenotypic analysis of CD34^+ cell subpopulations by flow cytometry. […] Vitisin B is also compared with the following stilbene-type molecules at 10 μM concentration: Resveratrol, Pallidol, E-Viniferin, Ampelopsin, Oxyresveratrol, Picateatannol, Gnetol
At the end of the hematopoietic cell amplification protocol, an analysis of cell proliferation and amplification of immature and committed cell populations is performed.
Cell proliferation is evaluated by counting cells on Malassez slides with Trypan blue exclusion of dead cells.
The amplification of cell populations is based on a phenotypic analysis relating to the evolution of the expression of membrane markers CD34 and CD133 by flow cytometry. These markers make it possible to define more or less immature cell populations organized hierarchically as follows: CD34^+CD133^+->CD34^+CD133^neg->CD34^negCD133^neg. To this end, cells are incubated with anti-CD34 (1:100,000) (BD Pharmingen) and anti-CD133 (1:100,000) (BD Pharmingen) antibodies for 15 minutes. The cells are then rinsed with a PBS solution and centrifuged (430×g, 10 min, 4° C.). After resuspension of the cell pellets in PBS, the cells are analyzed by flow cytometry (FACSCantoll, Becton Dickinson, San Jose, CA).
The proportions of each phenotypic population thus observed and the total amount of cells make it possible to calculate the rate of amplification of the most immature cells (CD34^+CD133+) compared with the amplification of more committed progenitors (CD34^+CD133^neg and CD34^negCD133^neg).

**Q.** For Oc1ccc(C2Oc3ccc(/C=C/c4cc(O)cc5c4[C@H](c4cc(O)cc(O)c4)[C@@H](c4ccc(O)cc4)O5)cc3C2c2cc(O)cc3c2C(c2cc(O)cc(O)c2)C(c2ccc(O)cc2)O3)cc1 (stereo in doubt) [vitisin B, 5-[(2R,2'S,3R,3'S)-5-[(1E)-2-[(2S,3S)-3-(3,5-Dihydroxyphenyl)-2,3-dihydro-6-hydroxy-2-(4-hydroxyphenyl)-4-benzofuranyl]ethenyl]-2,2′,3,3′-tetrahydro-6′-hydroxy-2,2′-bis(4-hydroxyphenyl)[3,4′-bibenzofuran]-3′-yl]-1,3-benzenediol], which CD71 expression ([1]; flow cytometry) is on record?
**A.** more rapid decline

**Q.** And the “acquisition of CD235a (GPA)” value ([1]; flow cytometry)?
**A.** earlier acquisition

**Q.** What about the “differentiation of CD34+ cells into erythrocyte precursors” value ([1]; vitisin B 5-30 μM for the entire protocol) of the same molecule?
**A.** faster and greater differentiation

**Q.** What about the “amplification of the total amount of progenitors of the CD34+ phenotype” value ([2]; 10 μM, 12-day culture, FIG. 1) of the same molecule?
**A.** up to 250%

**Q.** What about the “amplification of the CD34+CD133neg subpopulation (erythrocyte potential)” value ([2]; 10 μM, FIG. 1) of the same molecule?
**A.** induces amplification

**Q.** And the “effect on the proportion and total amount of CD34+CD133neg cells” value ([2]; 10 μM, FIG. 2)?
**A.** convincing effect

**Q.** What about the “effect of increasing the dose on total CD34+ and CD34+CD133neg populations” value ([2]; 50 μM versus 10 μM) of the same molecule?
**A.** no additional effect

From US20260265694A1, “USE OF A VITISIN COMPOUND FOR THE PRODUCTION OF HEMATOPOIETIC CELLS” (ETABLISSEMENT FRANCAIS DU SANG, priority 2022, published 2026)
